Test results taken from patent US5998468A, “Furanone endothelin antagonists” (Warner-Lambert Company, priority 1997, dated 1999).
“Also recorded” adds a separate entry of the source. Read-outs that look alike come from different tables or passages of the source. One block for each compound: values may come before it. Where a SMILES comes first, the peptide text is derived from it. [ ]: non-standard residue; d: D form.

Tests used:
[1] = test system: early cerebral vasospasm following SAH; settings: rabbit; cited from earlier work
[2] = test system: early cerebral vasospasm following SAH; settings: cited from earlier work; for early cerebral vasospasm following SAH: rat
ETA = settings: mouse endotoxic shock; cited from earlier work
endothelin receptor ETB = test: Endothelin receptor binding assay-B (ERBA-B), [125I]-ET-1 binding in rat cerebellar membranes; settings: [125I]-ET-1 25 pM, rat cerebellar membranes (also modified with human ETB in CHO-K1)
Text: (§1) The compounds of Formula I are valuable antagonists of endothelin.
Count filters for radioactivity in gamma counter.
The above process has also been modified by using human recombinant CHO-K1 cells.
The tissue used for human ETB was recombinant human ETB receptor expressed in CHO-K1 cells (chinese hamster ovary cells). The gene for human ETB receptor was cloned and inserted into the pRc-CMW expression vector, then transfected into CHO-K1 cells by electroporation. For binding assays, membranes (0.7 mg protein) of CHO-K1 cells expressing recombinant human ETB receptor were used.

endothelin receptor ETA = target: T1, endothelin receptor ETA (Oryctolagus cuniculus, UniProt A5A8K3); assay type: binding; settings: [125I]-ET-1 25 pM, rabbit renal artery vascular smooth muscle cells; read-out: ERBA-A IC50
T1 sequence (A5A8K3 21-427): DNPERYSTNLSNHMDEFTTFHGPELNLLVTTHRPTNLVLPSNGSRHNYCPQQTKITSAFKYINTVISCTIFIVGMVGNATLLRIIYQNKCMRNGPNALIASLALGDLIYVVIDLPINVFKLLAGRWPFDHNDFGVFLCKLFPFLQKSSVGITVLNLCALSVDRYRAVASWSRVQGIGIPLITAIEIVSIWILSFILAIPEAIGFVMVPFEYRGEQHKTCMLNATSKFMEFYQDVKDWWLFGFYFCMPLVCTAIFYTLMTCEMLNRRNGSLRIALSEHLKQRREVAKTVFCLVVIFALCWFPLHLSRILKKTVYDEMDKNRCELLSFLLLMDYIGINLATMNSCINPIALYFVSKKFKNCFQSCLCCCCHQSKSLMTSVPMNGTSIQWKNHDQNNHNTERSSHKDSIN
Text: as §1

basilar artery = settings: after 7 days, canine two-hemorrhage model of SAH; cited from earlier work

Compound: CC(C)C[C@@H]1NC(=O)[C@@H](C(C)C)NC(=O)[C@@H]2CCCN2C(=O)[C@@H](CC(=O)O)NC(=O)[C@@H](Cc2c[nH]c3ccccc23)NC1=O [BQ-123] (cyclo(L[dW][dD]P[dV]))
early cerebral vasospasm following SAH [1]: prevents early cerebral vasospasm | early cerebral vasospasm following SAH [2]: prevent early cerebral vasospasm following subarachnoid hemorrhage; also recorded: prevents early cerebral vasospasm | survival rate (ETA): significantly increased

IC50 (endothelin receptor ETB): > 2500 nM | IC50 (endothelin receptor ETA): 700 nM
Compound: COc1ccc(C2OC(=O)C(c3ccc4c(c3)OCO4)=C2Cc2ccccc2)cc1 (centres unmarked) [Example 1, 3-Benzo[1,3]dioxol-5-yl-4-benzyl-5-(4-methoxyphenyl)-5H-furan-2-one]

IC50 (endothelin receptor ETA): 30 nM
Compound: COc1ccc(C2OC(=O)C(c3ccc4c(c3)OCO4)=C2Cc2cc(OC)c(OC)c(OC)c2)cc1 (centres unmarked) [Example 2, 3-Benzo[1,3]dioxol-5-yl-5-(4-methoxyphenyl)-4-(3,4,5-trimethoxybenzyl)-5H-furan-2-one]

IC50 (endothelin receptor ETA): > 100 nM
Compound: COc1ccc(CC2=C(c3ccc4c(c3)OCO4)C(=O)OC2c2cc(OC)c(OC)c(OC)c2)cc1 (centres unmarked) [Example 3, 3-Benzo[1,3]dioxol-5-yl-4-(4-methoxybenzyl)-5-(3,4,5-trimethoxyphenyl)-5H-furan-2-one]

IC50 (endothelin receptor ETA): 200 nM
Compound: COc1ccc(C2OC(=O)C(c3ccc4c(c3)OCO4)=C2Cc2ccc(OC)c(C)c2)cc1 (centres unmarked) [Example 4, 3-Benzo[1,3]dioxol-5-yl-4-(4-methoxy-3-methylbenzyl)-5-(4-methoxyphenyl)-5H-furan-2-one]

Compound: COc1cccc(Oc2c(NS(=O)(=O)c3ccc(C(C)(C)C)cc3)ncnc2OCCO)c1 [Ro 46-2005]
systemic arterial blood pressure ([2]; rat SAH): no significant effect | early cerebral vasospasm following SAH [2]: prevent early cerebral vasospasm

Compound: FR 139317
vasoconstriction of the basilar artery (basilar artery): significantly inhibited
